Experimental data as given in patent US20240360146A1, “BRUTON'S TYROSINE KINASE AND MUTANT DEGRADER, COMPOSITION AND APPLICATION THEREOF” (HANGZHOU HEALZEN THERAPEUTICS CO., LTD., priority 2021, published 2024).

Key:
[1] = molecular target: T1, BTK (Homo sapiens, UniProt Q06187); assay: BTK degradation activity test in Mino cells; type: cell-based; settings: 16 h incubation, Western blot or Elisa
T1 construct: endogenous in cells; host or cells: Mino cells
Outline: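 DC50 derived by curve fitting of BTK degradation rates versus untreated control across compound concentrations. Mino cells were exposed for 16 h; BTK levels in lysates, normalised via BCA protein, measured by Western blot or ELISA.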

[2] = test system: Mino cells; assay: Inhibitory activity on Mino cell proliferation (MTS); type: cell-based; settings: Homo sapiens, 168 h incubation
Description: The anti-tumor efficacy of the compounds was tested by measuring their inhibitory effects on OCI-LY10 and Mino cell proliferation. OCI-LY10 and Mino cells were cultured in RPMI-1640 medium containing 10% fetal calf serum. OCI-LY10 and Mino cells were digested, inoculated in a 96-well plate at a cell concentration of 10000 cells/well, and incubated overnight at 37° C., 5% CO2. Compounds of different concentrations (1000 nM, 4-fold dilution, 8 points) were added to the 96-well plate and incubated for 72 h (LY10) or 168 h (Mino) at 37° C. and 5% CO2, and then 20 uL of MTS was added to each well. After incubation for 2 h, 25 μl of 10% SDS was added to each well to terminate the reaction. The absorbance at 490 nm and 650 nm were measured with a microplate reader. IC50 was calculated using GraphPad Prism 5.0.

T1 sequence (Q06187 whole entry): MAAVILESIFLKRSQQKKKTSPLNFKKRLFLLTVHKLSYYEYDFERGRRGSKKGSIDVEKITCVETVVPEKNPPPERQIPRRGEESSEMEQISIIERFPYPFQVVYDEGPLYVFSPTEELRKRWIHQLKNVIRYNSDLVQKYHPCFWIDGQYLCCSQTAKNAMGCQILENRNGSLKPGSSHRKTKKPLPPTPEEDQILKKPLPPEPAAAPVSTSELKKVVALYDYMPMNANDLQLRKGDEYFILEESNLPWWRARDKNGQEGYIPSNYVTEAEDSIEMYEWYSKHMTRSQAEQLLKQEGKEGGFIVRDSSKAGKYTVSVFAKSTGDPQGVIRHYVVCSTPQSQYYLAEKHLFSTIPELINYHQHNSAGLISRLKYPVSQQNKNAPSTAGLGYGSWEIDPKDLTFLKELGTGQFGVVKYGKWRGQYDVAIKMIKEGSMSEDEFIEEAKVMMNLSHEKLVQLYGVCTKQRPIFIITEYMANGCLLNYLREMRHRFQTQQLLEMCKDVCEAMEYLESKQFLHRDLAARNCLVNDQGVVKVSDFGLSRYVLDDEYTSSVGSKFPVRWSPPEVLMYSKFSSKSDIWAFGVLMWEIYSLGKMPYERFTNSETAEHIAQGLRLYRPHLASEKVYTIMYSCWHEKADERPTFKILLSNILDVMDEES

Row | SMILES | DC50 [1] [nM] | IC50 [2] [nM]
1 | CN1CCN([C@@H]2CCCN(c3nnc(C(N)=O)c(Nc4ccc(N5CCN(C[C@@H]6CCN(c7ccc(N8CCC(=O)NC8=O)cc7)C6)CC5)c(F)c4)n3)C2)C1=O [Compound 152, 5-((4-(4-(((S)-1-(4-(2,4-dioxotetrahydropyrimidin-1(2H)-yl)phenyl)pyrrolidin-3-yl)methyl)piperazin-1-yl)-3-fluorophenyl)amino)-3-((R)-3-(3-methyl-2-oxoimidazolin-1-yl)piperidin-1-yl)-1,2,4-triazin-6-carboxamide] | < 1 | 2.8
2 | CN1CCN([C@@H]2CCCN(c3nnc(C(N)=O)c(Nc4ccc(N5CCN(CC6CCN(c7ccc(C(=O)NC8CCC(=O)NC8=O)c(F)c7F)CC6)CC5)c(F)c4)n3)C2)C1=O (stereo partly drawn) [Compound 182, 5-((4-(4-((1-(4-((2,6-dioxopiperidin-3-yl)carbamoyl)-2,3-difluorophenyl)piperidin-4-yl)methyl)piperazin-1-yl)-3-fluorophenyl)amino)-3-((R)-3-(3-methyl-2-oxoimidazolidin-1-yl)piperidin-1-yl)-1,2,4-triazin-6-carboxamide] | < 1 | 3.19
3 | CN1CCN([C@@H]2CCCN(c3nnc(C(N)=O)c(Nc4ccc(N5CCN(CC6CCN(c7ccc(C(=O)NC8CCC(=O)NC8=O)c8c7OCCO8)CC6)CC5)c(F)c4)n3)C2)C1=O (stereo partly drawn) [Compound 183, 5-((4-(4-((1-(8-((2,6-dioxopiperidin-3-yl)carbamoyl)-2,3-dihydrobenzo[b][1,4]dioxan-5-yl)piperidin-4-yl)methyl)piperazin-1-yl)-3-fluorophenyl)amino)-3-((R)-3-(3-methyl-2-oxoimidazolidin-1-yl)piperidin-1-yl)-1,2,4-triazin-6-carboxamide] | < 1 | 4.85
4 | CN1CCN([C@@H]2CCCN(c3nnc(C(N)=O)c(Nc4ccc(N5CCN(CC6CCN(c7ccc(N8CCC(=O)NC8=O)cc7F)CC6)CC5)c(F)c4)n3)C2)C1=O [Compound 186, (R)-5-((4-(4-((1-(4-(2,4-dioxotetrahydropyrimidin-1(2H)-yl)-2-fluorophenyl)piperidin-4-yl)methyl)piperazin-1-yl)-3-fluorophenyl)amino)-3-(3-(3-methyl-2-oxoimidazolidin-1-yl)piperidin-1-yl)-1,2,4-triazin-6-carboxamide] | < 1 | 2.26
5 | CN1CCN([C@@H]2CCCN(c3nnc(C(N)=O)c(Nc4ccc(N5CCN(CC6CCN(c7ccc(N8CCC(=O)NC8=O)c(C(F)(F)F)c7)CC6)CC5)c(F)c4)n3)C2)C1=O [Compound 187, (R)-5-((4-(4-((1-(4-(2,4-dioxotetrahydropyrimidin-1(2H)-yl)-3-(trifluoromethyl)phenyl)piperidin-4-yl)methyl)piperazin-1-yl)-3-fluorophenyl)amino)-3-(3-(3-methyl-2-oxoimidazolidin-1-yl)piperidin-1-yl)-1,2,4-triazin-6-carboxamide] | < 1 | 2.07
6 | CN1CCN([C@@H]2CCCN(c3nnc(C(N)=O)c(Nc4ccc(N5CCN(CC6CCN(c7ccc(N8CCC(=O)NC8=O)c(C(F)F)c7)CC6)CC5)c(F)c4)n3)C2)C1=O [Compound 188, (R)-5-((4-(4-((1-(3-(difluoromethyl)-4-(2,4-dioxotetrahydropyrimidin-1(2H)-yl)phenyl)piperidin-4-yl)methyl)piperazin-1-yl)-3-fluorophenyl)amino)-3-(3-(3-methyl-2-oxoimidazolidin-1-yl)piperidin-1-yl)-1,2,4-triazin-6-carboxamide] | < 1 | 5.55
7 | CC(C)c1cc(N2CCC(CN3CCN(c4ccc(Nc5nc(N6CCC[C@@H](N7CCN(C)C7=O)C6)nnc5C(N)=O)cc4F)CC3)CC2)ccc1N1CCC(=O)NC1=O [Compound 189, (R)-5-((4-(4-((1-(4-(2,4-dioxotetrahydropyrimidin-1(2H)-yl)-3-isopropylphenyl)piperidin-4-yl)methyl)piperazin-1-yl)-3-fluorophenyl)amino)-3-(3-(3-methyl-2-oxoimidazolidin-1-yl)piperidin-1-yl)-1,2,4-triazin-6-carboxamide] | < 1 | 5.45
8 | CN1CCN([C@@H]2CCCN(c3nnc(C(N)=O)c(Nc4ccc(N5CCN(CC6CCN(c7ccc(N8CCC(=O)NC8=O)c8ocnc78)CC6)CC5)c(F)c4)n3)C2)C1=O [Compound 191, (R)-5-((4-(4-((1-(7-(2,4-dioxotetrahydropyrimidin-1(2H)-yl)benzo[d]oxazol-4-yl)piperidin-4-yl)methyl)piperazin-1-yl)-3-fluorophenyl)amino)-3-(3-(3-methyl-2-oxoimidazolidin-1-yl)piperidin-1-yl)-1,2,4-triazin-6-carboxamide] | < 1 | 8.47
9 | CN1CCN([C@@H]2CCCN(c3nnc(C(N)=O)c(Nc4ccc(N5CCN(CC6CCN(c7ccc(N8CCC(=O)NC8=O)c8[nH]cnc78)CC6)CC5)c(F)c4)n3)C2)C1=O [Compound 192, (R)-5-((4-(4-((1-(7-(2,4-dioxotetrahydropyrimidin-1(2H)-yl)-1H-benzo[d]imidazol-4-yl)piperidin-4-yl)methyl)piperazin-1-yl)-3-fluorophenyl)amino)-3-(3-(3-methyl-2-oxoimidazolidin-1-yl)piperidin-1-yl)-1,2,4-triazin-6-carboxamide] | < 1 | 2.41
10 | CN1CCN([C@@H]2CCCN(c3nnc(C(N)=O)c(Nc4ccc(N5CCN(CC6CCN(c7ccc(NC8CCC(=O)NC8=O)c8c7OCO8)CC6)CC5)c(F)c4)n3)C2)C1=O (stereo partly drawn) [Compound 209, 5-((4-(4-((1-(7-((2,6-dioxopiperidin-3-yl)amino)benzo[d][1,3]dioxacyclopent-4-yl)piperidin-4-yl)methyl)piperazin-1-yl)-3-fluorophenyl)amino)-3-((R)-3-(3-methyl-2-oxoimidazolidin-1-yl)piperidin-1-yl)-1,2,4-triazin-6-carboxamide] | < 1 | 3.42
11 | CN1CCN([C@@H]2CCCN(c3nnc(C(N)=O)c(Nc4ccc(N5CCN(CC6CCN(c7ccc(NC8CCC(=O)NC8=O)c8ocnc78)CC6)CC5)c(F)c4)n3)C2)C1=O (stereo partly drawn) [Compound 210, 5-((4-(4-((1-(7-((2,6-dioxopiperidin-3-yl)amino)benzo[d]oxazol-4-yl)piperidin-4-yl)methyl)piperazin-1-yl)-3-fluorophenyl)amino)-3-((R)3-(3-methyl-2-oxoimidazolidin-1-yl)piperidin-1-yl)-1,2,4-triazin-6-carboxamide] | < 1 | 2.33
12 | CN1CCN([C@@H]2CCCN(c3nnc(C(N)=O)c(Nc4ccc(N5CCN(CC6CCN(c7ccc8c(C9CCC(=O)NC9=O)nn(C)c8c7)CC6)CC5)c(F)c4)n3)C2)C1=O (stereo partly drawn) [Compound 213, 5-((4-(4-((1-(3-(2,6-dioxopiperidin-3-yl)-1-methyl-1H-indazol-6-yl)piperidin-4-yl)methyl)piperazin-1-yl)-3-fluorophenyl)amino)-3-((R)-3-(3-methyl-2-oxoimidazolidin-1-yl)piperidin-1-yl)-1,2,4-triazin-6-carboxamide] | < 1 | 7.64
13 | CN1CCN([C@@H]2CCCN(c3nnc(C(N)=O)c(Nc4ccc(N5CCN(CC6CCN(c7cccc8c(C(=O)NC9CCC(=O)NC9=O)cccc78)CC6)CC5)c(F)c4)n3)C2)C1=O (stereo partly drawn) [Compound 249, 5-((4-(4-((1-(5-((2,6-dioxopiperidin-3-yl)carbamoyl)naphthalen-1-yl)piperidin-4-yl)methyl)piperazin-1-yl)-3-fluorophenyl)amino)-3-((R)-3-(3-methyl-2-oxoimidazolidin-1-yl)piperidin-1-yl)-1,2,4-triazin-6-carboxamide] | < 1 | –
14 | CN1CCN([C@@H]2CCCN(c3nnc(C(N)=O)c(Nc4ccc(N5CCN(CC6CCN(c7ccnc8c(C(=O)NC9CCC(=O)NC9=O)cccc78)CC6)CC5)c(F)c4)n3)C2)C1=O (stereo partly drawn) [Compound 250, 4-(4-((4-(4-((6-carbamoyl-3-((R)-3-(3-methyl-2-oxoimidazolidin-1-yl)piperidin-1-yl)-1,2,4-triazin-5-yl)amino)-2-fluorophenyl)piperazin-1-yl)methyl)piperidin-1-yl)-N-(2,6-dioxopiperidin-3-yl)quinolin-8-carboxamide] | < 1 | –
15 | CN1CCN([C@@H]2CCCN(c3nnc(C(N)=O)c(Nc4ccc(N5CCN(CC6CCN(c7ccc(NC8CCC(=O)NC8=O)cc7F)CC6)CC5)c(F)c4)n3)C2)C1=O (some centres unmarked) [Compound 251] | < 1 | –
16 | CN1CCN([C@@H]2CCCN(c3nnc(C(N)=O)c(Nc4ccc(N5CCN(CC6CCN(c7ccc(NC8CCC(=O)NC8=O)cc7C(F)(F)F)CC6)CC5)c(F)c4)n3)C2)C1=O (some centres unmarked) [Compound 252] | < 1 | –
17 | CN1CCN([C@@H]2CCCN(c3nnc(C(N)=O)c(Nc4ccc(N5CCN(CC6CCN(c7ccc(NC8CCC(=O)NC8=O)cc7)CC6)CC5)c(F)c4)n3)C2)C1=O (stereo partly drawn) [Compound 253, 5-((4-(4-((1-(4-((2,6-dioxopiperidin-3-yl)amino)phenyl)piperidin-4-yl)methyl)piperazin-1-yl)-3-fluorophenyl)amino)-3-((R)-3-(3-methyl-2-oxoimidazolidin-1-yl)piperidin-1-yl)-1,2,4-triazin-6-carboxamide] | < 1 | –
